US10793531B2, “Triazole derivatives and their use as PDE4 activators” (MIRONID LIMITED, priority 2015, dated 2020)
Like-named read-outs stand apart in the source and are kept apart here.

Legend:
full-length human PDE4B1 = target: T1, full-length human PDE4B1 (Homo sapiens, UniProt Q07343); test: PDE4 radio-assay, PDE4B1 long form activation (Experiment 1); type: biochemical; conditions: n ≥ 2
T1 construct: stably expressed the full-length human PDE4D5, PDE4A4 and PDE4B1 long isoforms; made in house; cytosol fraction of the lysate
T1 sequence (Q07343 whole entry, canonical isoform): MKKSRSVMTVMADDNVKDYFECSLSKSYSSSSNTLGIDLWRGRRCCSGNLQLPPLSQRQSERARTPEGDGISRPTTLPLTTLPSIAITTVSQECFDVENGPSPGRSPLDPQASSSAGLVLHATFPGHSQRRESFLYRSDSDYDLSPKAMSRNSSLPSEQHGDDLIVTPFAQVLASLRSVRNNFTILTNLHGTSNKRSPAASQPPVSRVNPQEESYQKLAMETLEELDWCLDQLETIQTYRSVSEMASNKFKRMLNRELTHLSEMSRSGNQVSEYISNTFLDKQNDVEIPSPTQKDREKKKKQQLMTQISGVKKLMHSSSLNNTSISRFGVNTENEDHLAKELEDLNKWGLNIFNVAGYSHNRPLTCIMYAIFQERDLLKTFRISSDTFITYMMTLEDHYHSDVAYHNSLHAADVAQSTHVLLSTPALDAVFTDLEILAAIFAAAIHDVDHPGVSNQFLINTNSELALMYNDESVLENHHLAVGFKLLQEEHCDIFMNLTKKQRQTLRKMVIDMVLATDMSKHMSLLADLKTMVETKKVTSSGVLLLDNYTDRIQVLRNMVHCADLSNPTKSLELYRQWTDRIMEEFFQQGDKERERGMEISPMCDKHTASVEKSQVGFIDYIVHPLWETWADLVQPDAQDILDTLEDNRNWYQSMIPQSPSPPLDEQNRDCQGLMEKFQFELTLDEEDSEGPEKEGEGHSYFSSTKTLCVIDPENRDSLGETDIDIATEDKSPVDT
Experimental: (§1) One suitable method of detecting whether or not a compound is capable of serving as an activator of a PDE4 long form is using a two-step radio-assay procedure described in Experiment 1. In summary, the method involves incubating a PDE4 long form with a test small molecule activator, together with [^3H]-labelled cAMP to assess alterations in the breakdown of cAMP to the 5′-adenosine monophosphate (5′-AMP) product. A sample of the reaction mixture from such an incubation is subsequently treated with snake venom 5′-nucleotidase to allow conversion of the nucleotide [^3H]-labelled 5′-AMP to the uncharged nucleoside [^3H]-labelled adenosine, which can be separated and quantified to assess PDE4 activity and the effect of the test compound (Thompson, W. J. and Appleman, M. M. Biochemistry 10: 311-316, 1971, with some modifications as described in: Marchmont, R. J. and Houslay, M. D. Biochem J. 187: 381-92, 1980).
(§2) HEK 293 cells were transfected with pDEST™ PDE4 expression vectors using Lipofectamine LTX/Plus reagent (Invitrogen) as outlined by the manufacturer and clonal isolates expanded to obtain cell lines that stably expressed the full-length human PDE4D5, PDE4A4 and PDE4B1 long isoforms and the full length human PDE4B2 short isoform. These were called the HEK-PDE4D5, HEK-PDE4A4, HEK-PDE4B1 and HEK-PDE4B2 cell lines, respectively.
(§3) HEK-PDE4D5 cells were seeded out in 100 mm plates and incubated at 37° C. in an atmosphere of 5% CO2, 95% air. Cell lysates were prepared using KHEM buffer [50 mM KCl, 10 mM EGTA, 50 mM HEPES (pH 7.2), 1.92 mM MgCl2].
(§4) To prepare the cell lysates, the 100 mm plates containing the cells were placed on ice and washed with ice-cold PBS (phosphate buffered saline, pH 7.4). KHEM buffer (500 μl) was added to the cells. Cells were then scraped off the plate and triturated using a needle (BD Microlance™ 0.8, 40 mm). The lysed cells were then centrifuged at 2000 rpm for 10 minutes to remove cell debris and the supernatant (cell lysate containing recombinant PDE4D5) was transferred to a fresh tube and kept on ice.
(§5) The cell lysate containing recombinant PDE4D5 was transferred into a centrifuge tube and placed into an ultracentrifuge (BECKMAN COULTER) and spun at high speed (100,000 g) for 30 minutes at 4° C. The cytosol fraction was then collected and its protein amount determined using a BCA protein assay.
PDE assays were performed using a final concentration of 10 mM Tris/5 mM MgCl2 and 1 μM [3H]-cAMP (Perkin Elmer) plus PDE4D5 cell lysate cytosol fraction, containing over-expressed PDE4D5, with and without test compound. Incubations were performed at 30° C. for 5 minutes. The samples were then placed in a boiling water bath for 2 minutes to denature the PDE enzyme, and returned to ice. Samples were allowed to cool for 1.0 min after which snake venom 5′-nucleotidase (25 μl, 1 mg/ml; Sigma) was added. The tubes were vortexed and incubated in a water bath at 30° C. for 10 minutes, to attain conversion of [3H]-5′-AMP to [3H]-adenosine, and then placed on ice. Dowex ion exchange resin (Sigma) prepared as a 1:1 Dowex:water stock was thoroughly re-suspended and diluted 2:1 with ethanol. The resulting Dowex suspension (0.4 ml) was added to each tube. Tubes were vortexed to mix and then incubated on ice for at least 15 minutes before a final vortex. […] Tubes were vortexed thoroughly to mix and the recovered [3H]-adenosine was quantified by measuring counts over 1 minute in a scintillation counter.

[1] = Pharmacokinetic profile in male C57 mice (Experiment 7); type: in vivo, mouse
Experimental: Example A was dissolved in 5% DMA+10% Solutol+85%(10% HPBCD in water) to afford a clear dosing solution of 1 mg/mL. The dosing solution was administered to three mice at 2 mg/kg i.v. via the tail vein and to three further mice at 10 mg/kg p.o. via oral gavage. Blood samples (ca. 20 μL) were collected at 2, 5, 20 min, 1, 2, 4, 8 and 12 h after i.v. dosing and at 15, 30 min, 1, 2, 4, 8, 12 and 24 h after oral dosing. The blood samples were diluted with 3 volumes of distilled water and stored at −80° C. until analysis. The samples were analysed by UPLC-MS/MS (API 5500).

[2] = system: cryopreserved human hepatocytes; test: In vitro clearance using human hepatocytes (Experiment 6); type: in vitro ADME; conditions: 1 μM compound, 1 million cells/ml, 37° C.
Experimental: (§6) Human hepatocyte stability is considered the gold standard method for evaluating the hepatic metabolism of drugs in vitro. The in vitro clearance of Example A was evaluated using cryopreserved human hepatocytes according to the method of Lau et al. (Lau, Y. Y. et al. Drug Metab. Dispos. 30: 1446-1454, 2002) with minor modifications.
(§7) Cryopreserved hepatocytes were thawed in a water bath at 37° C. and transferred to a tube containing 50 ml of hepatocyte thaw medium. The hepatocytes were centrifuged at 500 rpm for 3 min. The supernatant was removed and the hepatocytes were resuspended in medium, mixed gently and centrifuged again at 500 rpm for 3 min. The supernatant was discarded and the hepatocyte pellet was gently resuspended in medium to a final density of 2 million cells/ml.
(§8) Incubations were carried out at a final test compound concentration of 1 μM. Stock solutions of the compounds were prepared in DMSO and diluted to the desired concentrations before adding to the hepatocytes. Incubations were carried out with a hepatocyte concentration of 1 million cells/ml. Samples (100 μL) were incubated at 37° C. for 0, 15, 30, 60 and 120 min in duplicate. At the end of the incubation time, 200 μl of acetonitrile with internal standard was added and the wells were sealed. […]
(§9) The samples were analysed by LC-MS/MS using a Sciex API 4000™ system.

[3] = as above; type: in vitro ADME; conditions: human, cryopreserved human hepatocytes; 1 μM compound, 1 million cells/ml, 37° C.
Experimental: as §6, §7, §8, §9

full-length human PDE4D5 = target: T2, full-length human PDE4D5 (Homo sapiens, UniProt Q08499); test: PDE4 radio-assay, PDE4D5 long form activation (Experiment 1); type: biochemical; conditions: n ≥ 2, read-out: PDE4D5 activity (mean % increase in counts over basal activity without added compound)
T2 construct: stably expressed the full-length human PDE4D5, PDE4A4 and PDE4B1 long isoforms; made in house; cytosol fraction of the lysate
T2 sequence (Q08499 1-745 isoform Q08499-6): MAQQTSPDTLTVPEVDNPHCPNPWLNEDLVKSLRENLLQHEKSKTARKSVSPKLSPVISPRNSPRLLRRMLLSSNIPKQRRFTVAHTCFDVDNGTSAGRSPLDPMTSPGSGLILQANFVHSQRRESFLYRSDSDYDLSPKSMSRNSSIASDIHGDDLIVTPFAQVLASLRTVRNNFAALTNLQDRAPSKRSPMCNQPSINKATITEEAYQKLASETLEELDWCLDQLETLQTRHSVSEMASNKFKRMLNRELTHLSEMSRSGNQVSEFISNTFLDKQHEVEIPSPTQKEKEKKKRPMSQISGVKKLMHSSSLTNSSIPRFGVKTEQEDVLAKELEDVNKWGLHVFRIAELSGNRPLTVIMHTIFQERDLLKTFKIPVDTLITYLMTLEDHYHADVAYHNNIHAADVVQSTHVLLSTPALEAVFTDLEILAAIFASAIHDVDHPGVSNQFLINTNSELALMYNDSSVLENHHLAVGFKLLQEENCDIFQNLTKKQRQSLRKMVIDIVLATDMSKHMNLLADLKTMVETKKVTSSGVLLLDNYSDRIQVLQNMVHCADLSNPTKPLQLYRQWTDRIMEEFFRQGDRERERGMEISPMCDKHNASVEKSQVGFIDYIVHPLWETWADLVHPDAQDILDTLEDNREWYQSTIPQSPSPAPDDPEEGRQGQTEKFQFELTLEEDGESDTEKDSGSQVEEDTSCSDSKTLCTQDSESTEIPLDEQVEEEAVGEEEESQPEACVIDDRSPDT
Experimental: as §1, §2, §3, §4, §5
PDE assays were performed using a final concentration of 10 mM Tris/5 mM MgCl2 and 1 μM [3H]-cAMP (Perkin Elmer) plus PDE4D5 cell lysate cytosol fraction, containing over-expressed PDE4D5, with and without test compound. Incubations were performed at 30° C. for 5 minutes. The samples were then placed in a boiling water bath for 2 minutes to denature the PDE enzyme, and returned to ice. Samples were allowed to cool for 1.0 min after which snake venom 5′-nucleotidase (25 μl, 1 mg/ml; Sigma) was added. The tubes were vortexed and incubated in a water bath at 30° C. for 10 minutes, to attain conversion of [3H]-5′-AMP to [3H]-adenosine, and then placed on ice. Dowex ion exchange resin (Sigma) prepared as a 1:1 Dowex:water stock was thoroughly re-suspended and diluted 2:1 with ethanol. The resulting Dowex suspension (0.4 ml) was added to each tube. Tubes were vortexed to mix and then incubated on ice for at least 15 minutes before a final vortex. The Dowex resin was pelleted by centrifugation at 13,000 g at 4° C. for 3 minutes and 150 μl of the supernatant was removed to an Eppendorf tube containing 1 ml of ScintiSafe3 scintillation fluid (Fisher). Tubes were vortexed thoroughly to mix and the recovered [3H]-adenosine was quantified by measuring counts over 1 minute in a scintillation counter.

CCc1nc(-c2ccc(Cl)c(F)c2)nn1CC(=O)NCc1cccc(F)c1 [Example A, N-(3-Fluorobenzyl)-2-[3-(4-chloro-3-fluorophenyl)-5-ethyl-1H-1,2,4-triazol-1-yl]acetamide]
PDE4B1 activity (mean % increase in counts over basal activity without added compound) (full-length human PDE4B1; 1 μM compound): −2.4%
PDE4B1 activity (mean % increase in counts over basal activity without added compound) (full-length human PDE4B1; 3 μM compound): 4.9%
PDE4B1 activity (mean % increase in counts over basal activity without added compound) (full-length human PDE4B1; 10 μM compound): 22.0%
PDE4B1 activity (mean % increase in counts over basal activity without added compound) (full-length human PDE4B1; 30 μM compound): 61.3%
PDE4B1 activity (mean % increase in counts over basal activity without added compound) (full-length human PDE4B1; 50 μM compound): 92.9%
abnormal effects observed in the mice ([1]; 2 mg/kg i.v. or 10 mg/kg p.o.): No abnormal effects were observed
half-life ([1]; mouse, iv, 2 mg/kg i.v., whole blood, read-out: terminal half life after i.v. dosing (converted)): 4.2 h
bioavailability ([1]; mouse, oral, 10 mg/kg p.o. vs 2 mg/kg i.v., whole blood): 66%
half-life ([1]; mouse, po, 10 mg/kg p.o., whole blood, read-out: terminal half life after oral dosing (converted)): 4.9 h
stability in human hepatocytes (in words) [2]: moderately stable
half-life at 1 μM [3]: 0.9 h
activation at 1 µM (full-length human PDE4D5; 1 μM compound): -3.6%
activation at 3 µM (full-length human PDE4D5; 3 μM compound): -0.2%
activation at 10 µM (full-length human PDE4D5; 10 μM compound): 12.5%
activation at 30 µM (full-length human PDE4D5; 30 μM compound): 39.7%
activation at 50 µM (full-length human PDE4D5; 50 μM compound): 91.9%
